This passage reports MIC results from DBAASP.

Some test systems named below: Shigella flexneri; Salmonella sp.; Vibrio alginolyticus; Escherichia coli K-12; Aeromonas salmonicida; Lactococcus garvieae; Streptococcus iniae; Enterococcus faecalis; Staphylococcus aureus; Escherichia coli mcr; Pseudomonas aeruginosa; Escherichia coli; Bacillus subtilis 168; Glaesserella parasuis; Fusarium oxysporum; Escherichia coli SBS 363; Botrytis cinerea.
What all share (test): ≥ marks a high value that may be exact or a test limit, other limits are often not marked, values filed in µg/mL are converted to µM
Assay [1] has as its system Pseudomonas aeruginosa KCTC 1637.
Assay [2] has as its system Staphylococcus aureus KCTC 3881.
The subject of assay [3] is Pseudomonas aeruginosa PAO1.
In assay [4] the test system is Escherichia coli KCTC 2593.
Assay [5] concerns Salmonella typhimurium KCTC 1926.
Assay [6] concerns Bacillus subtilis KCTC 1021.
Assay [7] relates to Staphylococcus epidermidis KCTC 1917.
Assay [8] deals with Staphylococcus aureus USA 300.
Assay [9] concerns Staphylococcus aureus KCTC 1621.
Assay [10] has as its system Pseudomonas aeruginosa KCTC 2513.
Assay [11] deals with Staphylococcus aureus CCARM 3090.
For assay [12], the system named is Actinobacillus pleuropneumoniae.
In assay [13] the test system is Escherichia coli KCTC 2571.
Assay [14] relates to Staphylococcus aureus CCARM 3126.
The subject of assay [15] is Salmonella typhimurium CVCC 542.
Assay [16] has as its system Escherichia coli CCARM 1229.
In assay [17] the test system is Escherichia coli KCTC 1682.
For assay [18], the system named is Aeromonas salmonicida NCTC 7812.
Assay [19] has as its system Bacillus subtilis KCTC 1022.
Assay [20] has as its system Salmonella typhimurium CCARM 8003.
In assay [21] the test system is Staphylococcus aureus CCARM 3089.
Assay [22] deals with Staphylococcus aureus CCARM 3108.
In assay [23] the test system is Bacillus subtilis KCTC 3068.
Assay [24] concerns Enterococcus faecalis ATCC 29212.
Assay [25] concerns Pseudomonas aeruginosa KCTC 2004.
In assay [26] the test system is Pseudomonas aeruginosa CCARM 2002.
For assay [27], the system named is Staphylococcus aureus KCTC 1916.
Assay [28] deals with Staphylococcus aureus ATCC 29213.
Assay [29] deals with Staphylococcus aureus CCARM 3114.
Assay [30] deals with Acinetobacter baumannii CCARM 12005.
The subject of assay [31] is Micrococcus luteus CIP 5345.

In brackets after ≈: the same amount, converted by molar mass. Several values for one entry are separate records, joined by “and”; a condition that tells them apart may be missing. Identical values can stand only once.

As usually defined, the MIC is the lowest concentration that inhibits growth of the organism. A high value points to a less susceptible organism. In the case of `CC[C@H](C)[C@H](NC(=O)CNC(=O)[C@H](CCCNC(=N)N)NC(=O)[C@H](Cc1ccccc1)NC(=O)[C@@H](NC(=O)[C@H](Cc1cnc[nH]1)NC(=O)[C@H](Cc1cnc[nH]1)NC(=O)[C@H](Cc1ccccc1)NC(=O)[C@@H](N)Cc1ccccc1)[C@@H](C)CC)C(=O)N[C@H](C(=O)N[C@@H](Cc1cnc[nH]1)C(=O)N[C@H](C(=O)NCC(=O)N[C@@H](CCCCN)C(=O)N[C@H](C(=O)N[C@H](C(=O)N[C@@H](Cc1cnc[nH]1)C(=O)N[C@@H](CCCNC(=N)N)C(=O)N[C@@H](CC(C)C)C(=O)N[C@H](C(=O)N[C@H](C(=O)NCC(=O)O)[C@@H](C)O)C(C)C)[C@@H](C)CC)[C@@H](C)O)C(C)C)C(C)C` [FFHHIFRGIVHVGKTIHRLVTG], the MIC in [1] is 4 µM (≈ 10.3 µg/mL); in [2], 2 µM (≈ 5.14 µg/mL); in the assay with Shigella flexneri it was 1.21 µM (≈ 3.1 µg/mL); in assay [3], 50 µM (≈ 129 µg/mL); in [4], 1 µM (≈ 2.57 µg/mL); in [5] it was 2 µM (≈ 5.14 µg/mL). Also, the MIC in assay [6] turned out to be 2 µM (≈ 5.14 µg/mL); in [7] it was 2 µM (≈ 5.14 µg/mL); in assay [8] it was 3.1 µM (≈ 7.97 µg/mL); in assay [9] it was 4 µM (≈ 10.3 µg/mL); in [10], 2 µM (≈ 5.14 µg/mL); against Salmonella sp., 6.22 µM (≈ 16 µg/mL). Besides, the MIC against Vibrio alginolyticus is 1.21 µM (≈ 3.1 µg/mL); in assay [11] it was 8 µM (≈ 20.6 µg/mL); in assay [12] it was 6.22 µM (≈ 16 µg/mL); with Escherichia coli K-12, 12.5 µM (≈ 32.2 µg/mL); in [13], 1 µM (≈ 2.57 µg/mL); in assay [14] it was 4 µM (≈ 10.3 µg/mL). In addition, the MIC stood at 1.21 µM (≈ 3.1 µg/mL) against Aeromonas salmonicida; 1.21 µM (≈ 3.1 µg/mL) with Lactococcus garvieae; 6.22 µM (≈ 16 µg/mL) in assay [15]; 1.21 µM (≈ 3.1 µg/mL) with Streptococcus iniae; 4 µM (≈ 10.3 µg/mL) in assay [16]; 1.21 µM (≈ 3.1 µg/mL) against Enterococcus faecalis. For the same compound, the MIC was 2 µM (≈ 5.14 µg/mL) in assay [17]; no less than 77.8 µM in assay [18]; 1 µM (≈ 2.57 µg/mL) in assay [19]; 4 µM (≈ 10.3 µg/mL) in assay [20]; 8 µM (≈ 20.6 µg/mL) in [21]; 4 µM (≈ 10.3 µg/mL) in [22]. Further, the MIC against Staphylococcus aureus was 1.21 µM (≈ 3.1 µg/mL); in assay [23] it was 2 µM (≈ 5.14 µg/mL); in assay [24] it was 1.22 µM (≈ 3.14 µg/mL); in the assay on Escherichia coli mcr, 2.2 µM (≈ 5.66 µg/mL); with Pseudomonas aeruginosa, 4.86 µM and 12.4 µM; against Escherichia coli, 1.21 µM (≈ 3.1 µg/mL). Moreover, the MIC amounted to 2 µM (≈ 5.14 µg/mL) in assay [25]; 12.5 µM (≈ 32.2 µg/mL) against Bacillus subtilis 168; 2 µM (≈ 5.14 µg/mL) in assay [26]; 1 µM (≈ 2.57 µg/mL) in [27]; 2.43 µM (≈ 6.25 µg/mL) in [28]; 4 µM (≈ 10.3 µg/mL) in assay [29]. Further, the MIC is 2 µM (≈ 5.14 µg/mL) in [30] and 3.11 µM (≈ 8 µg/mL) in the assay with Glaesserella parasuis.

On to `NCCCC[C@H](NC(=O)[C@@H]1CCCN1C(=O)[C@@H](N)CCCN=C(N)N)C(=O)N1CCC[C@H]1C(=O)N[C@@H](CCCN=C(N)N)C(=O)N1CCC[C@H]1C(=O)N[C@@H](CCCN=C(N)N)C(=O)N1CCC[C@H]1C(=O)N[C@@H](CCCN=C(N)N)C(=O)N1CCC[C@H]1C(=O)N[C@@H](CCC(=O)O)C(N)=O` [RPKPRPRPRPE], for which the minimal inhibitory concentration (MIC) in the assay on Fusarium oxysporum was no less than 100 µM; in assay [31], no less than 200 µM; against Escherichia coli SBS 363, no less than 200 µM; in the assay on Botrytis cinerea it was no less than 100 µM.
